3 compounds from publication PMC9352307 (Biochemistry, 2022) can be followed below.

Experiment [1] concerns the target T1, NADP^+-dependent malic enzyme 1 (ME1) (Homo sapiens, UniProt P48163).
T1 sequence (P48163 1-572): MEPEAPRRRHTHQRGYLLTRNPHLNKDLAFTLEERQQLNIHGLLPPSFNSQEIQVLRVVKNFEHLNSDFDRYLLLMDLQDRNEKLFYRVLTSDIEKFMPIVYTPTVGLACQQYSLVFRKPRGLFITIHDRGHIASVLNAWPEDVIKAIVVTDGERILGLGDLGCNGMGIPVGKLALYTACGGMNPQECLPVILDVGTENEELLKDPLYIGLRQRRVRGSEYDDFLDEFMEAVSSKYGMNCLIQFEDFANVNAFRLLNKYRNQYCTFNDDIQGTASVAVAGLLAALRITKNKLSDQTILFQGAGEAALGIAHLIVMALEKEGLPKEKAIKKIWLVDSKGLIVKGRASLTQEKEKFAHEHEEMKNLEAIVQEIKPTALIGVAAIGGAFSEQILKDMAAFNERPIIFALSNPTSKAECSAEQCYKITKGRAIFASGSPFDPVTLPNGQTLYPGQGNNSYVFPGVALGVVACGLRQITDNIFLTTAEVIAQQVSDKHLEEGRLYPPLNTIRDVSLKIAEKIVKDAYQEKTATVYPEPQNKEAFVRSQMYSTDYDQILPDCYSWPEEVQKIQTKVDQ
Put plainly: Michaelis–Menten enzyme kinetics. Format: biochemical.

The target of experiment [2] is T1, NADP^+-dependent malic enzyme 1 (ME1). The experiment can be described thus: X-ray crystal structure. Format: biochemical.

Take `NC(=O)c1ccc[n+]([C@@H]2O[C@H](COP(=O)(O)OP(=O)(O)OC[C@H]3O[C@@H](n4cnc5c(N)ncnc54)[C@H](OP(=O)(O)O)[C@@H]3O)[C@@H](O)[C@H]2O)c1` [NADP^+]: the Michaelis-Menten enzyme kinetics result in experiment [1] is on record as “enzyme kinetics were examined using various concentrations of malate or NADP^+”.

In the case of `CCCc1nc2c(C)ccn(Cc3ccc4nc(-c5ccccc5-c5nnn[nH]5)sc4c3)c-2n1` [AS1134900, 6-[(7-methyl-2-propylimidazo[4,5-b]pyridin-4-yl)methyl]-2-[2-(1H-tetrazol-5-yl)phenyl]-1,3-benzothiazole], the IC50 (as a rule, the concentration that inhibits the measured activity by half) in experiment [2] was found to be 730 nM.

Turning to `O=C(O)CC(O)C(=O)O` (stereo not drawn) [malate], the Michaelis-Menten enzyme kinetics result in experiment [1] was “Michaelis–Menten plot of ME1 activity in the presence of AS1134900 vs DL-malate”.
